Organism: Rattus norvegicus
Assay: DrugMatrix - Regimen: Daily Repeat
Assay type: toxicity, organism-based, Sprague-Dawley
Parameters: regimen Daily Repeat, gender Male, age 6-8 weeks
Settings: in vivo, po, route oral GAVAGE, […]; for ABSOLUTE BASOPHIL / ABSOLUTE EOSINOPHIL / ABSOLUTE LYMPHOCYTE / ABSOLUTE MONOCYTE / ABSOLUTE SEGMENTED NEUTROPHIL / BASOPHIL / EOSINOPHIL / ERYTHROCYTE COUNT / HEMATOCRIT / HEMOGLOBIN / LEUKOCYTE COUNT / LYMPHOCYTE / MEAN CORPUSCULAR HEMOGLOBIN / MEAN CORPUSCULAR HEMOGLOBIN CONCENTRATION / MEAN CORPUSCULAR VOLUME / MONOCYTE / NEUTROPHIL / NUCLEATED RED BLOOD CELLS / PLATELET COUNT: tissue Blood; for ALANINE AMINOTRANSFERASE / ALBUMIN / ALKALINE PHOSPHATASE / ASPARTATE AMINOTRANSFERASE / BLOOD UREA NITROGEN / CARBON DIOXIDE / CHLORIDE / CHOLESTEROL / CREATINE PHOSPHOKINASE / CREATININE / GLUCOSE / LACTATE DEHYDROGENASE / LIPASE / PHOSPHORUS / POTASSIUM / SODIUM / TOTAL BILIRUBIN / TOTAL PROTEIN / URIC ACID: tissue Plasma
[1] = 0 mg/kg, 72 h, dose level Control, time 3 day
[2] = 0 mg/kg, 120 h, dose level Control, time 5 day
[3] = 30 mg/kg, 72 h, dose level Low, time 3 day
[4] = 30 mg/kg, 120 h, dose level Low, time 5 day

Cc1ccc(-c2cc(C(F)(F)F)nn2-c2ccc(S(N)(=O)=O)cc2)cc1 [CELECOXIB]
ABSOLUTE BASOPHIL [1]: 0 CELLS/uL
ABSOLUTE EOSINOPHIL [1]: 104.17 CELLS/uL
ABSOLUTE LYMPHOCYTE [1]: 14547 CELLS/uL
ABSOLUTE MONOCYTE [1]: 292 CELLS/uL
ABSOLUTE SEGMENTED NEUTROPHIL [1]: 1640.17 CELLS/uL
BASOPHIL [1]: 0%
EOSINOPHIL [1]: 0.67%
ERYTHROCYTE COUNT [1]: 5.35 x10E6/uL
HEMATOCRIT [1]: 33.67%
HEMOGLOBIN [1]: 13.38 G/DL
LEUKOCYTE COUNT [1]: 16.58 x10E3/uL
LYMPHOCYTE [1]: 87.5%
MEAN CORPUSCULAR HEMOGLOBIN [1]: 25.05 pg
MEAN CORPUSCULAR HEMOGLOBIN CONCENTRATION [1]: 39.78 G/DL
MEAN CORPUSCULAR VOLUME [1]: 62.97 fL
MONOCYTE [1]: 1.83%
NEUTROPHIL [1]: 10%
NUCLEATED RED BLOOD CELLS [1]: 0 /100WBC
PLATELET COUNT [1]: 1274.5 x10E3/uL
ALANINE AMINOTRANSFERASE [1]: 76.83 u/L
ALBUMIN [1]: 3.97 G/DL
ALKALINE PHOSPHATASE [1]: 347 u/L
ASPARTATE AMINOTRANSFERASE [1]: 97.17 u/L
BLOOD UREA NITROGEN [1]: 14.33 mg/dL
CARBON DIOXIDE [1]: 25.5 mmol/L
CHLORIDE [1]: 100.33 MEQ/L
CHOLESTEROL [1]: 68.67 mg/dL
CREATINE PHOSPHOKINASE [1]: 659.17 u/L
CREATININE [1]: 0.32 mg/dL
GLUCOSE [1]: 160.67 mg/dL
LACTATE DEHYDROGENASE [1]: 271.5 u/L
LIPASE [1]: 11.67 u/L
PHOSPHORUS [1]: 10.65 mg/dL
POTASSIUM [1]: 5.95 MEQ/L
SODIUM [1]: 139.65 MEQ/L
TOTAL BILIRUBIN [1]: 0.2 mg/dL
TOTAL PROTEIN [1]: 5.72 G/DL
URIC ACID [1]: 1.37 mg/dL
ABSOLUTE BASOPHIL [2]: 0 CELLS/uL
ABSOLUTE EOSINOPHIL [2]: 331.5 CELLS/uL
ABSOLUTE LYMPHOCYTE [2]: 15021.67 CELLS/uL
ABSOLUTE MONOCYTE [2]: 376.5 CELLS/uL
ABSOLUTE SEGMENTED NEUTROPHIL [2]: 3070.33 CELLS/uL
BASOPHIL [2]: 0%
EOSINOPHIL [2]: 1.83%
ERYTHROCYTE COUNT [2]: 5.24 x10E6/uL
HEMATOCRIT [2]: 33.22%
HEMOGLOBIN [2]: 13.2 G/DL
LEUKOCYTE COUNT [2]: 18.8 x10E3/uL
LYMPHOCYTE [2]: 79.67%
MEAN CORPUSCULAR HEMOGLOBIN [2]: 25.17 pg
MEAN CORPUSCULAR HEMOGLOBIN CONCENTRATION [2]: 39.73 G/DL
MEAN CORPUSCULAR VOLUME [2]: 63.38 fL
MONOCYTE [2]: 2%
NEUTROPHIL [2]: 16.5%
NUCLEATED RED BLOOD CELLS [2]: 0 /100WBC
PLATELET COUNT [2]: 1142.67 x10E3/uL
ALANINE AMINOTRANSFERASE [2]: 52.5 u/L
ALBUMIN [2]: 3.9 G/DL
ALKALINE PHOSPHATASE [2]: 284.5 u/L
ASPARTATE AMINOTRANSFERASE [2]: 81.33 u/L
BLOOD UREA NITROGEN [2]: 16 mg/dL
CARBON DIOXIDE [2]: 25.33 mmol/L
CHLORIDE [2]: 99.5 MEQ/L
CHOLESTEROL [2]: 74.83 mg/dL
CREATINE PHOSPHOKINASE [2]: 448.33 u/L
CREATININE [2]: 0.37 mg/dL
GLUCOSE [2]: 164.17 mg/dL
LACTATE DEHYDROGENASE [2]: 290.67 u/L
LIPASE [2]: 6.83 u/L
PHOSPHORUS [2]: 11.5 mg/dL
POTASSIUM [2]: 6.28 MEQ/L
SODIUM [2]: 139.5 MEQ/L
TOTAL BILIRUBIN [2]: 0.13 mg/dL
TOTAL PROTEIN [2]: 5.55 G/DL
URIC ACID [2]: 1.12 mg/dL
ABSOLUTE BASOPHIL [3]: 0 CELLS/uL
ABSOLUTE EOSINOPHIL [3]: 104 CELLS/uL
ABSOLUTE LYMPHOCYTE [3]: 15747.67 CELLS/uL
ABSOLUTE MONOCYTE [3]: 360 CELLS/uL
ABSOLUTE SEGMENTED NEUTROPHIL [3]: 1788.33 CELLS/uL
BASOPHIL [3]: 0%
EOSINOPHIL [3]: 0.67%
ERYTHROCYTE COUNT [3]: 5.61 x10E6/uL
HEMATOCRIT [3]: 36.13%
HEMOGLOBIN [3]: 13.97 G/DL
LEUKOCYTE COUNT [3]: 18 x10E3/uL
LYMPHOCYTE [3]: 87.33%
MEAN CORPUSCULAR HEMOGLOBIN [3]: 24.9 pg
MEAN CORPUSCULAR HEMOGLOBIN CONCENTRATION [3]: 38.63 G/DL
MEAN CORPUSCULAR VOLUME [3]: 64.4 fL
MONOCYTE [3]: 2%
NEUTROPHIL [3]: 10%
NUCLEATED RED BLOOD CELLS [3]: 0.33 /100WBC
PLATELET COUNT [3]: 1151.67 x10E3/uL
ALANINE AMINOTRANSFERASE [3]: 77 u/L
ALBUMIN [3]: 4.2 G/DL
ALKALINE PHOSPHATASE [3]: 443 u/L
ASPARTATE AMINOTRANSFERASE [3]: 79.33 u/L
BLOOD UREA NITROGEN [3]: 10.67 mg/dL
CARBON DIOXIDE [3]: 22.67 mmol/L
CHLORIDE [3]: 102.67 MEQ/L
CHOLESTEROL [3]: 51 mg/dL
CREATINE PHOSPHOKINASE [3]: 260 u/L
CREATININE [3]: 0.12 mg/dL
GLUCOSE [3]: 164.33 mg/dL
LACTATE DEHYDROGENASE [3]: 234.67 u/L
LIPASE [3]: 10.67 u/L
PHOSPHORUS [3]: 11.63 mg/dL
POTASSIUM [3]: 6.08 MEQ/L
SODIUM [3]: 142.6 MEQ/L
TOTAL BILIRUBIN [3]: 0.13 mg/dL
TOTAL PROTEIN [3]: 6.07 G/DL
URIC ACID [3]: 1.27 mg/dL
ABSOLUTE BASOPHIL [4]: 0 CELLS/uL
ABSOLUTE EOSINOPHIL [4]: 252.67 CELLS/uL
ABSOLUTE LYMPHOCYTE [4]: 15009.33 CELLS/uL
ABSOLUTE MONOCYTE [4]: 640.67 CELLS/uL
ABSOLUTE SEGMENTED NEUTROPHIL [4]: 3164 CELLS/uL
BASOPHIL [4]: 0%
EOSINOPHIL [4]: 1.33%
ERYTHROCYTE COUNT [4]: 5.76 x10E6/uL
HEMATOCRIT [4]: 36.13%
HEMOGLOBIN [4]: 14 G/DL
LEUKOCYTE COUNT [4]: 19.07 x10E3/uL
LYMPHOCYTE [4]: 78.67%
MEAN CORPUSCULAR HEMOGLOBIN [4]: 24.33 pg
MEAN CORPUSCULAR HEMOGLOBIN CONCENTRATION [4]: 38.73 G/DL
MEAN CORPUSCULAR VOLUME [4]: 62.87 fL
MONOCYTE [4]: 3.33%
NEUTROPHIL [4]: 16.67%
NUCLEATED RED BLOOD CELLS [4]: 0 /100WBC
PLATELET COUNT [4]: 1265.67 x10E3/uL
ALANINE AMINOTRANSFERASE [4]: 70.67 u/L

From ChEMBL document CHEMBL3885881, “DrugMatrix”
